This is an account of results in PubChem BioAssay (NCI).

“And” between values parts separate entries of the source, which are not always exact repeats. Equal entries are not always repeated.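 How tested: cells in 96-well plates exposed to compound for 48 hours at five concentrations. At the GI50, growth is halved. TGI is the concentration that stops growth completely.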 A value given as a limit tells only on which side of the number the result lay.

Common to all, as to assay: NCI anticancer screen, dose series, 48 h
For assay [1], the system named is MOLT-4 leukemia.
In assay [2] the test system is A549 NSCLC.
Assay [3] relates to HT29 colon.
Assay [4] has as its system 786-0 renal.
Assay [5] relates to SNB-75 CNS.
The subject of assay [6] is SR leukemia.
Assay [7] concerns RXF 393 renal.
The subject of assay [8] is T-47D breast.
The test system of assay [9] is MDA-MB-231 breast.
In assay [10] the test system is DU-145 prostate.

Consider `C=C1C2CC(OC(C)=O)C3(C)C(c4ccoc4)OC(=O)[C@@H](O)[C@]13OC1C[C@H](OC(C)=O)C(C)(C)[C@H](C(O)C(=O)OC)[C@]12C` (some centres not stated), for which the TGI in assay [1], in [2], in assay [3], in assay [4] and in assay [5] was greater than 100 µM each time.

Take `O=C(N/C(=C\c1cccc([N+](=O)[O-])c1)c1nc2c3c(ccc2[nH]1)C(=O)c1ccccc1C3=O)c1ccccc1`: the TGI in [2], in [3], in [6], in assay [4] and in assay [5] was greater than 100 µM each time.

Turning to `C/C(=N\NC(=O)c1ccccc1O)c1c(O)cc(C)oc1=O`, the TGI in assay [1], in assay [2], in [3], in assay [4], in [5] and in assay [7] was greater than 100 µM throughout.

Turning to `Nc1ccc(C(=O)CC2(O)C(=O)Nc3ccccc32)cc1` (configuration not stated), the TGI in assay [1], in [2], in assay [3], in assay [4], in assay [5] and in [7] was greater than 100 µM throughout.

`O=C1CC=C2C3CC4N(CCC45c4ccccc4N1C25)C/C3=C\CO` (configuration not stated): the TGI in assay [1], in [2], in assay [3], in [8], in assay [4] and in [9] was greater than 100 µM in each case. For the same molecule, the TGI in assay [5] and in [10] was greater than 100 µM throughout.

Consider `CN1C(c2ccccc2)CC(=NO)CC1c1ccccc1` (configuration not stated), for which the GI50 was 23 µM in assay [1]; 88.1 µM in assay [2]; 34.8 µM in [3]; 24.9 µM in assay [6]; 46.4 µM in assay [8]; 95.7 µM in assay [4]. For the same molecule, in [7], the GI50 was 87.9 µM. The TGI is 62.2 µM and 69.3 µM in [1]; greater than 100 µM in assay [2]; greater than 100 µM in [3]; > 100 µM and 80.1 µM in [6]; greater than 100 µM in [4]; greater than 100 µM in [5]. Also, the TGI in assay [7] was greater than 100 µM.

As to `COC(=O)[C@@H](C)C[C@H](Cc1ccccc1)NC(=O)c1csc([C@@H](C[C@H](C(C)C)N(C)C(=O)[C@@H](NC(=O)[C@H]2CCCCN2C)c2ccc(F)cc2)OC(C)=O)n1`, the TGI in assay [1] is 8.45 µM and 54.4 µM; in assay [2], 25 µM and > 100 µM; in [6], 6.84 µM and 17.6 µM; in assay [4] it was 6.23 µM and 42.5 µM; in assay [5] it was 17.6 µM and 61.3 µM. For the same molecule, the GI50 was 0.00065 µM and 0.0025 µM in assay [6]; 0.00826 µM in assay [8].

Regarding `CCCCCCCCCCNC(=S)OC`, the TGI in assay [1] is 30.8 µM; in assay [2], greater than 100 µM; in assay [3], greater than 100 µM; in [6] it was 55.4 µM; in assay [4] it was greater than 100 µM; in [5], greater than 100 µM. This molecule also registered a TGI in assay [7] greater than 100 µM.

Take `Cn1nc(-c2ccccc2)c2c(/C=C/c3ccc(F)cc3)onc2c1=O`: the TGI in [1] is greater than 100 µM; in assay [2] it was greater than 100 µM; in assay [3], greater than 100 µM; in assay [4] it was greater than 100 µM; in assay [7], 70.7 µM.

Turning to `CC(=O)O[C@H]1CC[C@@]2(C)C(=CC[C@H]3C(CC#N)[C@@](C)(C#N)CCC32)C1` (some centres not stated), the TGI in assay [1], in assay [2], in assay [3], in assay [4], in assay [5] and in assay [7] was greater than 100 µM in each case.

With `COc1cccc(/C=C2\N=C(Cl)OC2=O)c1O`, the TGI is greater than 100 µM in assay [1]; greater than 100 µM in assay [2]; greater than 100 µM in assay [3]; greater than 100 µM in assay [6]; greater than 100 µM in assay [4]; greater than 93.3 µM in assay [5]. Further, the TGI in assay [7] and in [10] was greater than 100 µM each time.

On to `Cn1c(=O)nc2n(-c3ccc(F)c(F)c3)c3ccccc3nc-2c1=O`, for which the TGI in [2] is 60.5 µM; in assay [3] it was 16 µM; in assay [4] it was greater than 100 µM; in assay [5], 75 µM; in [7], 72.5 µM.

For `CCCC(=O)Oc1ccc(/C=N/NC(N)=S)nc1`, the TGI in assay [1], in assay [2], in [3], in assay [6], in assay [4] and in [5] was greater than 100 µM throughout. In addition, in assay [7], the TGI was greater than 100 µM.

`Clc1ccc(-c2nnc(-c3nn(-c4ccccc4)c4nc5ccccc5nc34)o2)cc1`: the TGI in assay [1] was 81.6 µM; in assay [2] it was greater than 100 µM; in assay [3], greater than 100 µM; in assay [4], greater than 100 µM; in assay [5], greater than 100 µM; in assay [7], greater than 100 µM.

Consider `CCOC(=O)NC(=O)c1cn(C2CCCCC2)c(=O)n(C)c1=O`, for which the TGI in assay [1], in assay [2], in assay [3], in assay [6], in [4] and in [5] was greater than 100 µM in each case. The molecule also registered a TGI in assay [7] greater than 100 µM.

Take `COc1nc(NC2OC(COC(C)=O)C(OC(C)=O)C(OC(C)=O)C2OC(C)=O)c(N=C(C)C(C)=O)c(=O)n1C` (configuration not stated): the TGI in [1], in assay [2], in assay [3], in assay [4], in [5] and in assay [7] was greater than 100 µM each time.

In the case of `CSc1nc2c(nc(N)n2C2OC(CO)C(O)C(O)C2O)c(=O)[nH]1` (configuration not stated), the TGI in [1], in assay [2], in [3], in [6], in [4] and in assay [5] was greater than 100 µM throughout. For the same molecule, the TGI in assay [7] is greater than 100 µM.

Take `CC(=O)N(N=O)c1ccc(N(N=O)C(C)=O)cc1`: the TGI in assay [1], in [2], in assay [3], in [6], in assay [4] and in assay [5] was greater than 100 µM each time. This molecule returned a TGI in [7] greater than 100 µM.
